Measurements published in patent EP4778922A1, “BICYCLIC COMPOUND, AND PREPARATION METHOD THEREFOR AND PHARMACEUTICAL USE THEREOF” (Shanghai Jeyou Pharmaceutical Co., Ltd., priority 2023, dated 2025).
Like-named read-outs stand apart in the source and are kept apart here.

Legend:
LNCaP cells = assay: Cell proliferation inhibition assay in LNCaP cells (0.2 nM DHT, CellTiter-Glo, 7 days); type: cell-based, human; conditions: Homo sapiens, 168 h
Procedure: • 1. The human prostate cancer cell lines 22RV1 and LNCaP were purchased from ATCC. […] The cell concentration was adjusted to an appropriate concentration (determined based on the results of cell density optimization experiments), and the cells were seeded into a 96-well plate. A 100 µL cell suspension was added, resulting in 3000 cells per well. […] On the second day, for 22Rv1 cells, test compounds at different concentrations were added, and the cells were incubated at 37°C in a 5% CO2 incubator for 7 days; for LNCaP cells, test compounds at different concentrations were added first, and after 1 hour of treatment, 0.2 nM DHT was added. The cells were then incubated at 37°C in a 5% CO2 incubator for 7 days. • 4. After the incubation period, a volume of CellTiter-Glo detection reagent equal to the volume of the culture medium was added to each well. The plate was shaken and mixed thoroughly for 5 minutes, then incubated at room temperature for 10 minutes. Readings were taken using a PerkinElmer EnVision microplate reader. • 5.
The IC50 curve was fitted and the IC50 value was calculated using the software GraphPad Prism 8 with the calculation formula XY-analysis/Nonlinear regression (curve fit)/Dose response-Inhibition/log (inhibitor) vs. response-Variable slope (four parameters).

22RV1 cells = assay: Cell proliferation inhibition assay in 22RV1 cells (CellTiter-Glo, 7 days); type: cell-based, human; conditions: Homo sapiens
How it was run: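 LNCaP and 22RV1 human prostate cancer cells, 3000 per well, exposed to graded compound for 7 days at 37°C, 5% CO2; LNCaP got 0.2 nM DHT 1 h after compound. Viability by CellTiter-Glo luminescence; IC50 from four-parameter variable-slope fit.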

[1] = Mouse pharmacokinetic test; type: in vivo, ICR mice; conditions: plasma; for Tmax: read-out: Tmax
Procedure: Formulation preparation: The dosing solutions were prepared on the day of administration.
Six healthy male naive ICR mice weighing 25-30 g were selected and divided into two groups (intravenous and oral groups), with three mice in each group, and administered a single dose. […] Feeding was resumed 4 h after administration. Timing was initiated following intravenous and oral administration. […] The collected whole blood was briefly vortexed twice for mixing, placed on wet ice, and centrifuged at 4°C and 8000 rpm for 5 min within 1 h. The supernatant plasma was collected and stored at -80°C until processing and analysis. Table 3: Pharmacokinetics in mice

Compound	IC50 (LNCaP cells) [nM]	IC50 (22RV1 cells; 22Rv1, 168 h) [nM]	AUC(0-inf) ([1]; po, 30 mg/kg, PO-30mpk) [µg·h/mL]	Cmax ([1]; po, 30 mg/kg, PO-30mpk) [ng/mL]	half-life ([1]; po, 30 mg/kg, PO-30mpk) [h]	Tmax ([1]; po, 30 mg/kg, PO-30mpk) [h]	also measured
CC(C)(c1ccc(-c2ccc(OCc3ccnc(P(C)(C)=O)n3)cc2)nc1)c1cc(Cl)c(OCCCl)c(C#N)c1 [Compound 459]							IC50 (LNCaP cells; LNCaP): 990 nM
CC(C)(c1ccc(-c2ccc(OCc3ccnc(N4CC(S(C)(=O)=O)C4)n3)nn2)cc1)c1cc(Cl)c(OCCCl)c(C#N)c1 [Compound 423]	460						
CC(C)(c1cc(Cl)c(OCCCl)c(C#N)c1)c1ccc(-c2ccc(OCc3ccnc(N4CC(S(C)(=N)=O)C4)n3)nc2)cn1 (stereo not drawn) [Compound 479]	700						
CC(C)(c1ccc(-c2ccc(OCc3ccnc(N4CC(P(C)(C)=O)C4)n3)cc2)cc1)c1cc(Cl)c(OCCCl)c(C#N)c1 [Compound 135]		230	207	13600	5.6	6	
CC(C)(c1cc(Cl)c(OCCCl)c(C#N)c1)c1ccc(-c2ccc(OCc3ccnc(N4CC(S(C)(=N)=O)C4)n3)cn2)cn1 (stereo not drawn) [Compound 475]	700						
CC(C)(c1ccc(-c2ccc(OCc3ccnc(N4CC(CS(C)(=O)=O)C4)n3)cc2)cc1)c1cc(Cl)c(OCCCl)c(C#N)c1 [Compound 175]		490	320	9200	21.1	4	
CC(C)(c1ccc(-c2ccc(Oc3ccnc(P(C)(C)=O)n3)cc2)cc1)c1cc(Cl)c(OCCCl)c(C#N)c1 [Compound 26]		1420	368	29500	7.81	3.33	
CC(C)(c1ccc(-c2ccc(OCc3ccnc(N4CC(NS(C)(=O)=O)C4)n3)cc2)cc1)c1cc(Cl)c(OCCCl)c(C#N)c1 [Compound 161]		450	376	11800	22.7	4	
CC(C)(c1ccc(-c2ccc(OCc3ccnc(P(C)(C)=O)n3)c(F)c2)cc1)c1cc(Cl)c(OCCCl)c(C#N)c1 [Compound 117]		680	304	15700	12.1	4	
CC(C)(c1ccc(-c2ccc(OCc3ccnc(N4CC5(CC(S(C)(=N)=O)C5)C4)n3)cc2)cc1)c1cc(Cl)c(OCCCl)c(C#N)c1 (stereo not drawn) [Compound 245]		990	181	11000	7.3	5	
CC(C)(c1cc(Cl)c(OCCCl)c(C#N)c1)c1ccc(-c2ccc(OCc3ccnc(N4CC(S(C)(=O)=O)C4)n3)nc2)cn1 [Compound 478]	780						
CC(C)(c1ccc(-c2ccc(COc3ccnc(P(C)(C)=O)n3)cc2)cc1)c1cc(Cl)c(OCCCl)c(C#N)c1 [Compound 253]		1060	298	20800	7.3	5	
CC(C)(c1ccc(-c2ncc(OCc3ccc(-c4cnc(P(C)(C)=O)nc4)cc3)cn2)cc1)c1cc(Cl)c(OCCCl)c(C#N)c1 [Compound 272]		650	755	53200	5.8	4	
CC(C)(c1ccc(-c2ccc(OCC3CC4(C3)CS(=N)(=O)C4)cc2)cc1)c1cc(Cl)c(OCCCl)c(C#N)c1 (stereo not drawn) [Compound 308]		750	186	14300	4.45	3	
CCCOc1c(Cl)cc(C(C)(C)c2ccc(-c3ccc(OCc4ccnc(P(C)(C)=O)n4)cc3)cc2)cc1C#N [Compound 191]							IC50 (22RV1 cells; 168 h): 410 nM; AUC(0-inf) ([1]; 30 mg/kg, PO-30mpk): 481 µg·h/mL; Cmax ([1]; 30 mg/kg, PO-30mpk): 25000 ng/mL; half-life ([1]; 30 mg/kg, PO-30mpk): 13.2 h; Tmax ([1]; 30 mg/kg, PO-30mpk): 4 h
CC(C)(c1ccc(-c2ccc(OCc3ccnc(P(C)(C)=O)n3)nc2)cc1)c1cc(Cl)c(OCCCl)c(C#N)c1 [Compound 17]		960	420	35700	5.82	4.67	C0 ([1]; 0.5 mg/kg, IV-0.5mpk): 982 ng/mL; clearance ([1]; 0.5 mg/kg, IV-0.5mpk): 1.1 mL/min/kg; bioavailability ([1]; 30 mg/kg, PO-30mpk vs IV-0.5mpk): 92.2%; AUC(0-inf) ([1]; iv, 0.5 mg/kg, IV-0.5mpk): 7.59 µg·h/mL; half-life ([1]; iv, 0.5 mg/kg, IV-0.5mpk): 5.6 h
CC(C)(c1ccc(-c2ccc(OCc3ccnc(N4CC5(C4)CS(=N)(=O)C5)n3)nc2)cc1)c1cc(Cl)c(OCCCl)c(C#N)c1 [Compound 400]	690						
CC(C)(c1ccc(-c2ccc(OCc3ccnc(N4CC(S(C)(=N)=O)C4)n3)cn2)cc1)c1cc(Cl)c(OCCCl)c(C#N)c1 (racemic) [Compound 242]		490	607	78000	4.4	4	
C[C@H](Cl)COc1c(Cl)cc(C(C)(C)c2ccc(-c3ccc(OCc4ccnc(P(C)(C)=O)n4)cc3)cc2)cc1C#N [Compound 283]		840	277	18700	9.3	4	
CC(C)(c1ccc(-c2ccc(OCc3ccnc(N=S4(=O)CCCC4)n3)cn2)cc1)c1cc(Cl)c(OCCCl)c(C#N)c1 [Compound 16]		940	211	36100	1.46	1.67	
CC(C)(c1ccc(-c2ccc(OCc3cccc(S(C)(=N)=O)n3)cc2)cc1)c1cc(Cl)c(OCCCl)c(C#N)c1 (stereo not drawn) [Compound 188]		1030	211	17300	7.5	3	

More lines, main results first:

IC50 (LNCaP cells) [nM]	Compound	IC50 (22RV1 cells; 22Rv1, 168 h) [nM]	AUC(0-inf) ([1]; po, 30 mg/kg, PO-30mpk) [µg·h/mL]	Cmax ([1]; po, 30 mg/kg, PO-30mpk) [ng/mL]	half-life ([1]; po, 30 mg/kg, PO-30mpk) [h]	Tmax ([1]; po, 30 mg/kg, PO-30mpk) [h]	also measured
180	CC(C)(c1ccc(-c2ccc(OCc3cnc(-c4cnc(P(C)(C)=O)nc4)cn3)cc2)cc1)c1cc(Cl)c(OCCCl)c(C#N)c1 [Compound 408]						
950	CC(=O)c1nccc(COc2cnc(-c3ccc(C(C)(C)c4cc(Cl)c(OCCCl)c(C#N)c4)cc3)cn2)n1 [Compound 441]						
830	CC(C)(c1ccc(-c2ccc(COc3ccnc(P(C)(C)=O)n3)nc2)cc1)c1cc(Cl)c(OCCCl)c(C#N)c1 [Compound 427]						
580	CC(C)(c1ccc(-c2cnc(COc3ccnc(N4CC(S(C)(=O)=O)C4)n3)nc2)cc1)c1cc(Cl)c(OCCCl)c(C#N)c1 [Compound 383]						
970	CC(C)(c1ccc(-c2ccc(Oc3ncc(-c4cnc(CP(C)(C)=O)nc4)cn3)cc2)cc1)c1cc(Cl)c(OCCCl)c(C#N)c1 [Compound 399]						
970	CC(C)(c1ccc(-c2ncc(OCc3ccnc(N4CC(S(C)(=N)=O)C4)n3)cn2)cc1)c1cc(Cl)c(OCCCl)c(C#N)c1 (single isomer, unassigned) [Compound 366A]						
920	CC(C)(c1ccc(-c2cnc(OCc3ccc(-c4cnc(P(C)(C)=O)nc4)nc3)nc2)cc1)c1cc(Cl)c(OCCCl)c(C#N)c1 [Compound 374]						
800	CC(C)(c1ccc(-c2ccc(OCc3ccnc(N4CC(S(C)(=O)=NC#N)C4)n3)cn2)cc1)c1cc(Cl)c(OCCCl)c(C#N)c1 (stereo not drawn) [Compound 413]						
470	CC(C)(c1ccc(-c2ccc3c(c2)C(=O)N(Cc2ccnc(P(C)(C)=O)n2)C3)cc1)c1cc(Cl)c(OCCCl)c(C#N)c1 [Compound 439]						
660	CC(C)(c1ccc(-c2cnc(OCc3ccnc(N4CC(S(C)(=N)=O)C4)n3)nc2)cc1)c1cc(Cl)c(OCCCl)c(C#N)c1 (stereo not drawn) [Compound 372]						
230	CC(C)(c1ccc(-c2cccc3c(OCc4ccnc(P(C)(C)=O)n4)nccc23)cc1)c1cc(Cl)c(OCCCl)c(C#N)c1 [Compound 345]						
580	CC(C)(c1ccc(-c2ccc(OCc3ccnc(N4CC(S(C)(=N)=O)C4)n3)cc2)nc1)c1cc(Cl)c(OCCCl)c(C#N)c1 (stereo not drawn) [Compound 461]						
680	CC(C)(c1cc(Cl)c(OCCCl)c(C#N)c1)c1ccc(-c2ccc(OCc3ccnc(P(C)(C)=O)n3)cc2)cn1 [Compound 474]						
450	CC(C)(c1ccc(-c2ccc(OCc3ccnc(N4CC(S(C)(=O)=O)C4)n3)cc2)nc1)c1cc(Cl)c(OCCCl)c(C#N)c1 [Compound 460]						
940	CC(C)(c1ccc(-c2ncc(OCc3ccc(-c4cnc(P(C)(C)=O)nc4)nc3)cn2)cc1)c1cc(Cl)c(OCCCl)c(C#N)c1 [Compound 426]						
910	CC(C)(c1ccc(-c2ccc(OCC34CC(c5cnc(P(C)(C)=O)nc5)(C3)C4)cn2)cc1)c1cc(Cl)c(OCCCl)c(C#N)c1 [Compound 367]						
490	CC(C)(c1ccc(-c2ccc(OCc3ccnc(N4CC5(CCS5(=N)=O)C4)n3)cn2)cc1)c1cc(Cl)c(OCCCl)c(C#N)c1 (stereo not drawn) [Compound 404]						
160	CC(C)(c1ccc(-c2ncc(OCc3ccc(-c4ccc(P(C)(C)=O)nn4)cc3)cn2)cc1)c1cc(Cl)c(OCCCl)c(C#N)c1 [Compound 455]						
970	CC(C)(c1ccc(N2CCCc3cc(OCc4ccnc(P(C)(C)=O)n4)ccc32)cc1)c1cc(Cl)c(OCCCl)c(C#N)c1 [Compound 457]						
